Tested on: Hs578T complex spheroid growth, percent test/control
Assay: Anticancer human tumor Hs578T cell line growth inhibition [AhR];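 note: luminescent viability signal as a proxy for spheroid growth; spheroids exposed to agents for one week after three days of growth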
Conditions: for IC50: curve of first compound; for viability, T/C: stronger effect = lower value
Method in brief: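 Agents were dosed in half-log steps down from roughly clinical Cmax, or from 10 microM where Cmax was unknown, alone and with AhR antagonists. Read-out: percent test/control growth of tumor spheroids containing HUVEC and MSC stromal cells.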

[1] = second compound 0.1 µM, first compound 0.0316 µM
[2] = second compound 0.1 µM, first compound 0.1 µM
[3] = second compound 0.316 µM, first compound 0.0316 µM
[4] = second compound 0.316 µM, first compound 0.1 µM
[5] = second compound 1 µM, first compound 0.0316 µM
[6] = second compound 1 µM, first compound 0.1 µM
[7] = second compound 3.16 µM, first compound 0.0316 µM
[8] = second compound 3.16 µM, first compound 0.1 µM
[9] = second compound 10 µM, first compound 0.0316 µM
[10] = second compound 10 µM, first compound 0.1 µM
[11] = second compound 0.1 µM, first compound 0.316 µM
[12] = second compound 0.1 µM, first compound 1 µM
[13] = second compound 0.1 µM, first compound 3.16 µM
[14] = second compound 0.1 µM, first compound 10 µM
[15] = second compound 0.316 µM, first compound 0.316 µM
[16] = second compound 0.316 µM, first compound 1 µM
[17] = second compound 0.316 µM, first compound 3.16 µM
[18] = second compound 0.316 µM, first compound 10 µM
[19] = second compound 1 µM, first compound 0.316 µM
[20] = second compound 1 µM, first compound 1 µM
[21] = second compound 1 µM, first compound 3.16 µM
[22] = second compound 1 µM, first compound 10 µM
[23] = second compound 3.16 µM, first compound 0.316 µM
[24] = second compound 3.16 µM, first compound 1 µM
[25] = second compound 3.16 µM, first compound 3.16 µM
[26] = second compound 3.16 µM, first compound 10 µM
[27] = second compound 10 µM, first compound 0.316 µM
[28] = second compound 10 µM, first compound 1 µM
[29] = second compound 10 µM, first compound 3.16 µM
[30] = second compound 10 µM, first compound 10 µM

Compound | IC50 (second compound 0.1 µM) | IC50 (second compound 0.316 µM) | IC50 (second compound 1 µM) | IC50 (second compound 3.16 µM) | IC50 (second compound 10 µM) | viability, T/C [1] | viability, T/C [2] | viability, T/C [3] | viability, T/C [4] | viability, T/C [5] | viability, T/C [6] | viability, T/C [7] | viability, T/C [8] | viability, T/C [9] | viability, T/C [10] | viability, T/C [11] | viability, T/C [12] | viability, T/C [13] | viability, T/C [14] | viability, T/C [15] | further results
CC[C@@]1(O)C(=O)OCc2c1cc1n(c2=O)Cc2cc3c(CN(C)C)c(O)ccc3nc2-1 + Cc1cncc(-c2nc(NCCc3c[nH]c4ccccc34)c3ncn(C(C)C)c3n2)c1 | > 100 nM | > 100 nM | > 100 nM | 14.7 nM | < 0.316 nM | 81.7% | 71.1% | 80.5% | 76.8% | 74.6% | 72.4% | 44.5% | 46.4% | 6.14% | 6.3% |  |  |  |  |  | viability, T/C (second compound 0.1 µM, first compound 0.000316 µM): 109%; viability, T/C (second compound 0.1 µM, first compound 0.001 µM): 112%; viability, T/C (second compound 0.1 µM, first compound 0.00316 µM): 95.3%; viability, T/C (second compound 0.1 µM, first compound 0.01 µM): 91.8%; viability, T/C (second compound 0.316 µM, first compound 0.000316 µM): 113%; viability, T/C (second compound 0.316 µM, first compound 0.001 µM): 112%; viability, T/C (second compound 0.316 µM, first compound 0.00316 µM): 108%; viability, T/C (second compound 0.316 µM, first compound 0.01 µM): 86.2%; viability, T/C (second compound 1 µM, first compound 0.000316 µM): 102%; viability, T/C (second compound 1 µM, first compound 0.001 µM): 121%; viability, T/C (second compound 1 µM, first compound 0.00316 µM): 98.2%; viability, T/C (second compound 1 µM, first compound 0.01 µM): 86.9%; viability, T/C (second compound 3.16 µM, first compound 0.000316 µM): 68.3%; viability, T/C (second compound 3.16 µM, first compound 0.001 µM): 72.9%; viability, T/C (second compound 3.16 µM, first compound 0.00316 µM): 67.6%; viability, T/C (second compound 3.16 µM, first compound 0.01 µM): 52.4%; viability, T/C (second compound 10 µM, first compound 0.000316 µM): 9.03%; viability, T/C (second compound 10 µM, first compound 0.001 µM): 8.61%; viability, T/C (second compound 10 µM, first compound 0.00316 µM): 7.61%; viability, T/C (second compound 10 µM, first compound 0.01 µM): 6.12%
COc1cc(C2c3cc4c(cc3C(OC3OC5COC(C)OC5C(O)C3O)C3COC(=O)C23)OCO4)cc(OC)c1O (stereo not given) + Cc1cncc(-c2nc(NCCc3c[nH]c4ccccc34)c3ncn(C(C)C)c3n2)c1 | > 10000 nM | > 10000 nM | > 10000 nM | 1860 nM | < 31.6 nM | 108% | 101% | 108% | 101% | 96.9% | 101% | 64% | 64.1% | 6.72% | 7.12% | 89% | 80.7% | 88.5% | 63.9% | 94.3% | viability, T/C [16]: 77%; viability, T/C [17]: 76.9%; viability, T/C [18]: 61.3%; viability, T/C [19]: 93%; viability, T/C [20]: 85.8%; viability, T/C [21]: 73.2%; viability, T/C [22]: 63%; viability, T/C [23]: 61.5%; viability, T/C [24]: 49%; viability, T/C [25]: 49.3%; viability, T/C [26]: 37.8%; viability, T/C [27]: 5.72%; viability, T/C [28]: 3.77%; viability, T/C [29]: 4.01%; viability, T/C [30]: 4.25%
Nc1ccn(C2OC(CO)C(O)C2(F)F)c(=O)n1 (stereo not given) + Cc1cncc(-c2nc(NCCc3c[nH]c4ccccc34)c3ncn(C(C)C)c3n2)c1 | > 10000 nM | > 10000 nM | > 10000 nM | < 31.6 nM | < 31.6 nM | 59.4% | 59.6% | 67.2% | 65.4% | 61.6% | 65.2% | 37.8% | 42.8% | 4.28% | 4.47% | 62.6% | 56.5% | 57.5% | 56.8% | 63% | viability, T/C [16]: 60.9%; viability, T/C [17]: 59.4%; viability, T/C [18]: 59.2%; viability, T/C [19]: 56.3%; viability, T/C [20]: 57.8%; viability, T/C [21]: 56.8%; viability, T/C [22]: 56.2%; viability, T/C [23]: 41.1%; viability, T/C [24]: 40.4%; viability, T/C [25]: 33.3%; viability, T/C [26]: 37.8%; viability, T/C [27]: 3.43%; viability, T/C [28]: 2.76%; viability, T/C [29]: 3.29%; viability, T/C [30]: 4.67%
